# Measured values as given in PubChem BioAssay (NCI).
#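 Results reflect a 48-hour exposure of cells in 96-well plates to compound at five concentrations. GI50: concentration for 50% inhibition of growth. TGI marks complete inhibition of growth.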
# Experiments:
# Test in all cases: growth of human tumour cells (NCI), 48 h
# [1] = system: OVCAR-4 ovarian
# [2] = system: RXF 393 renal
# [3] = system: UACC-257 melanoma
# [4] = system: U251 CNS
# [5] = system: NCI-H522 lung
# [6] = system: SR leukemia
# [7] = system: OVCAR-5 ovarian
# [8] = system: LOX IMVI melanoma
# [9] = system: T-47D breast
# [10] = system: CCRF-CEM leukemia
SMILES,TGI [1],TGI [2],TGI [3],TGI [4],TGI [5],TGI [6],TGI [7],TGI [8],TGI [9],TGI [10],GI50 [9]
CC(=O)O[C@H]1C#C/C=C\C#CC[C@@H]2C(=O)N(C(=O)OC(C)(C)C)[C@@H]12,> 100 µM,56.4 µM,> 100 µM,> 78.9 µM,47.8 µM,> 100 µM,> 100 µM,45.3 µM,88.6 µM,6.77 µM,–
Cc1cccc(C(C)(C)C)c1NC(=O)/C(Cc1nc2ccc([N+](=O)[O-])cc2[nH]c1=O)=N/NC(=O)C[N+](C)(C)C,> 100 µM,–,> 100 µM,> 100 µM,> 100 µM,–,> 100 µM,> 100 µM,> 100 µM,–,–
Cc1cc(S(=O)(=O)Nc2nnc3c(C(F)(F)F)cc(Cl)cn23)c(S)cc1Cl,> 100 µM,> 100 µM,> 100 µM,> 100 µM,> 100 µM,> 100 µM,> 100 µM,> 100 µM,> 100 µM,> 100 µM,–
Cc1ccc(S(=O)(=O)n2cncc2CO)cc1,> 100 µM,> 100 µM,> 100 µM,> 100 µM,> 100 µM,> 100 µM,> 100 µM,> 100 µM,> 100 µM,> 100 µM,–
COc1cc2cc(C(=O)N3CC(CCl)c4c3cc(N)c3ccccc43)[nH]c2cc1OCCN(C)C (configuration not stated),–,< 0.005 µM,16.8 µM,–,–,–,16.3 µM,–,0.0394 µM,< 0.005 µM,–
C/C(=N\NC(N)=O)C(CN1CCCCC1)C(c1ccccc1)c1c(O)c2ccccc2oc1=O (configuration not stated),> 100 µM,> 100 µM,> 100 µM,> 100 µM,> 100 µM,> 100 µM,> 100 µM,> 100 µM,> 100 µM,> 100 µM,> 100 µM
CC(=O)/C=C/C=C(\C)CC/C=C(\C)CC(C)C,> 100 µM,30.3 µM,60 µM,87.7 µM,42.6 µM,39.1 µM,> 100 µM,34 µM,46 µM,37 µM,–
Cc1cc(Cc2c(F)c(F)c(Cc3cc(C)no3)c(F)c2F)on1,> 100 µM,> 100 µM,> 100 µM,> 100 µM,> 100 µM,–,> 100 µM,> 100 µM,> 100 µM,> 100 µM,–
O=C(N/N=C\c1cccc2ccccc12)Nc1ccc([N+](=O)[O-])cc1,> 71.6 µM,> 42.6 µM,> 100 µM,> 100 µM,> 53.9 µM,> 100 µM,> 71 µM,> 100 µM,> 41.4 µM,> 100 µM,–
Cc1ccc2nc3c(C)c(Cl)c(=O)cc-3sc2c1,> 100 µM,73.7 µM,53.8 µM,> 91.5 µM,> 56.1 µM,> 31.6 µM,> 95.8 µM,33.6 µM,> 100 µM,56.8 µM,–
Cc1cc(C)c(S(=O)(=O)N(CCCCN)OCCCN)c(C)c1,32.3 µM,31.6 µM,30.2 µM,28.8 µM,29.9 µM,38 µM,35.6 µM,31.9 µM,33.4 µM,38.3 µM,–
O=C(c1ccccc1)c1c(C(F)(F)F)n([O-])c2ccccc2[n+]1=O,1.11 µM,3.83 µM,3.5 µM,> 100 µM,2 µM,0.413 µM,–,> 100 µM,2.85 µM,> 100 µM,–
O=C1NC(=S)N/C1=C/c1ccccc1O,> 100 µM,> 100 µM,> 100 µM,> 100 µM,> 100 µM,> 100 µM,> 100 µM,> 100 µM,> 100 µM,> 100 µM,–
O=C(O)/C=C(/CC(=O)O)C(=O)O,65.3 µM,34.8 µM,> 100 µM,41.2 µM,35.7 µM,–,> 100 µM,47.1 µM,48.1 µM,37.2 µM,–
C#CCNC(Cc1cnc[nH]1)C(=O)O (configuration not stated),> 100 µM,> 100 µM,> 100 µM,> 100 µM,> 100 µM,> 100 µM,> 100 µM,> 100 µM,> 100 µM,> 100 µM,–
COc1ccc(C(O)c2ccc3c(c2)OCO3)cc1 (configuration not stated),> 100 µM,> 100 µM,> 100 µM,> 100 µM,> 100 µM,> 100 µM,> 100 µM,> 100 µM,> 100 µM,> 100 µM,–
O=C1/C(=C/c2ccccc2)CCc2ccc(Cl)nc21,> 83.5 µM,24.8 µM,20.4 µM,16 µM,10.4 µM,9.01 µM,33.4 µM,–,18.6 µM,5.75 µM,–
CCCn1c(C23CC4CC(CC(C4)C2)C3)nc2ccc(Cl)cc2c1=O,> 100 µM,29 µM,> 100 µM,> 100 µM,> 100 µM,–,> 100 µM,> 100 µM,> 100 µM,> 100 µM,–
COC(=O)C1=C(O)C(C(=O)OC)[C@@]2(O)[C@@H](C(=O)OC)C(c3ccc(OC(=O)/C(=C/c4ccc(Cl)cc4)c4ccc(Cl)cc4)cc3)C[C@@H]1[C@@H]2C(=O)OC (some centres not stated),> 100 µM,> 100 µM,> 100 µM,> 100 µM,> 100 µM,> 100 µM,> 100 µM,38.1 µM,> 100 µM,> 100 µM,–
CN=C(Nn1cnnc1)OC,> 100 µM,> 100 µM,> 100 µM,> 100 µM,> 100 µM,> 100 µM,> 100 µM,–,> 100 µM,> 100 µM,–
Cc1nnc2cc(C(=O)O)c3ccccc3n2c1=O,> 10 µM,> 10 µM,> 10 µM,> 10 µM,> 10 µM,> 10 µM,> 10 µM,> 10 µM,> 10 µM,> 10 µM,–
